Data from PubChem BioAssay AID1259407 (Chemical Carcinogenesis Research Information System (CCRIS), 2018).
The source made the active and inactive calls. How the calls were made is not given here.

Tested on: CCRIS mutagenicity, Ames/micronucleus/aberration tests
Assay: CCRIS mutagenicity studies
[1] = Test System: AMES SALMONELLA TYPHIMURIUM, Strain/Indicator: TA98, Metabolic Activation: NONE, Method: PREINCUBATION
[2] = Test System: AMES SALMONELLA TYPHIMURIUM, Strain/Indicator: TA98, Metabolic Activation: NONE, Method: STANDARD PLATE
[3] = Test System: AMES SALMONELLA TYPHIMURIUM, Strain/Indicator: TA98, Metabolic Activation: RAT, LIVER, S-9, AROCLOR 1254, Method: STANDARD PLATE
[4] = Test System: AMES SALMONELLA TYPHIMURIUM, Strain/Indicator: TA100, Metabolic Activation: NONE, Method: STANDARD PLATE
[5] = Test System: AMES SALMONELLA TYPHIMURIUM, Strain/Indicator: TA100, Metabolic Activation: RAT, LIVER, S-9, AROCLOR 1254, Method: STANDARD PLATE
[6] = Test System: AMES SALMONELLA TYPHIMURIUM, Strain/Indicator: TA1538, Metabolic Activation: RAT, LIVER, S-9, AROCLOR 1254, Method: STANDARD PLATE

With `O=c1[nH]c(=O)n([C@H]2C[C@H](O)[C@@H](CO)O2)cc1CCCl` the mutagenic call (End Point: IN VITRO MICRONUCLEUS, Test System: V79 CHINESE HAMSTER CELLS, Metabolic Activation: NONE) was “inactive; negative”, the mutagenic call (End Point: IN VITRO MICRONUCLEUS, Test System: V79 CHINESE HAMSTER CELLS, Metabolic Activation: RAT, LIVER, S-9, AROCLOR 1254) was “inactive; negative” and the mutagenic call (End Point: IN VIVO MICRONUCLEUS, Test System: BONE MARROW POLYCHROMATIC ERYTHROCYTES, Species: MOUSE, Strain/Sex: CD-1/MALE, FEMALE, Route: GAVAGE) was “inactive; negative”. For the same compound, the mutagenic call (Test System: AMES SALMONELLA TYPHIMURIUM, Strain/Indicator: TA97, Metabolic Activation: NONE, Method: PREINCUBATION) was “inactive; negative”, the mutagenic call (Test System: AMES SALMONELLA TYPHIMURIUM, Strain/Indicator: TA97, Metabolic Activation: RAT, LIVER, S-9, AROCLOR 1254, Method: PREINCUBATION) was “inactive; negative” and the mutagenic call [1] was “inactive; negative”. For the same compound, the mutagenic call [2] was “inactive; negative”, the mutagenic call (Test System: AMES SALMONELLA TYPHIMURIUM, Strain/Indicator: TA98, Metabolic Activation: RAT, LIVER, S-9, AROCLOR 1254, Method: PREINCUBATION) was “inactive; negative” and the mutagenic call [3] was “inactive; negative”. The mutagenic call (Test System: AMES SALMONELLA TYPHIMURIUM, Strain/Indicator: TA100, Metabolic Activation: NONE, Method: PREINCUBATION) was “inactive; negative”, the mutagenic call [4] was “inactive; negative” and the mutagenic call (Test System: AMES SALMONELLA TYPHIMURIUM, Strain/Indicator: TA100, Metabolic Activation: RAT, LIVER, S-9, AROCLOR 1254, Method: PREINCUBATION) was “inactive; negative”. The mutagenic call [5] was “inactive; negative”, the mutagenic call (Test System: AMES SALMONELLA TYPHIMURIUM, Strain/Indicator: TA102, Metabolic Activation: NONE, Method: PREINCUBATION) was “inactive; negative” and the mutagenic call (Test System: AMES SALMONELLA TYPHIMURIUM, Strain/Indicator: TA102, Metabolic Activation: NONE, Method: STANDARD PLATE) was “active; positive”. For the same compound, the mutagenic call (Test System: AMES SALMONELLA TYPHIMURIUM, Strain/Indicator: TA102, Metabolic Activation: RAT, LIVER, S-9, AROCLOR 1254, Method: PREINCUBATION) was “inactive; negative”, the mutagenic call (Test System: AMES SALMONELLA TYPHIMURIUM, Strain/Indicator: TA102, Metabolic Activation: RAT, LIVER, S-9, AROCLOR 1254, Method: STANDARD PLATE) was “active; positive” and the mutagenic call (Test System: AMES SALMONELLA TYPHIMURIUM, Strain/Indicator: TA104, Metabolic Activation: NONE, Method: PREINCUBATION) was “inactive; negative”. For the same compound, the mutagenic call (Test System: AMES SALMONELLA TYPHIMURIUM, Strain/Indicator: TA104, Metabolic Activation: RAT, LIVER, S-9, AROCLOR 1254, Method: PREINCUBATION) was “inactive; negative”, the mutagenic call (Test System: AMES SALMONELLA TYPHIMURIUM, Strain/Indicator: TA1535, Metabolic Activation: NONE, Method: PREINCUBATION) was “inactive; negative” and the mutagenic call (Test System: AMES SALMONELLA TYPHIMURIUM, Strain/Indicator: TA1535, Metabolic Activation: NONE, Method: STANDARD PLATE) was “active; positive”. For the same compound, the mutagenic call (Test System: AMES SALMONELLA TYPHIMURIUM, Strain/Indicator: TA1535, Metabolic Activation: RAT, LIVER, S-9, AROCLOR 1254, Method: PREINCUBATION) was “inactive; negative”, the mutagenic call (Test System: AMES SALMONELLA TYPHIMURIUM, Strain/Indicator: TA1535, Metabolic Activation: RAT, LIVER, S-9, AROCLOR 1254, Method: STANDARD PLATE) was “active; positive” and the mutagenic call (Test System: AMES SALMONELLA TYPHIMURIUM, Strain/Indicator: TA1537, Metabolic Activation: NONE, Method: PREINCUBATION) was “inactive; negative”. The mutagenic call (Test System: AMES SALMONELLA TYPHIMURIUM, Strain/Indicator: TA1537, Metabolic Activation: NONE, Method: STANDARD PLATE) was “inactive; negative”, the mutagenic call (Test System: AMES SALMONELLA TYPHIMURIUM, Strain/Indicator: TA1537, Metabolic Activation: RAT, LIVER, S-9, AROCLOR 1254, Method: PREINCUBATION) was “inactive; negative” and the mutagenic call (Test System: AMES SALMONELLA TYPHIMURIUM, Strain/Indicator: TA1537, Metabolic Activation: RAT, LIVER, S-9, AROCLOR 1254, Method: STANDARD PLATE) was “inactive; negative”. For the same compound, the mutagenic call (Test System: AMES SALMONELLA TYPHIMURIUM, Strain/Indicator: TA1538, Metabolic Activation: NONE, Method: PREINCUBATION) was “inactive; negative”, the mutagenic call (Test System: AMES SALMONELLA TYPHIMURIUM, Strain/Indicator: TA1538, Metabolic Activation: NONE, Method: STANDARD PLATE) was “inactive; negative” and the mutagenic call (Test System: AMES SALMONELLA TYPHIMURIUM, Strain/Indicator: TA1538, Metabolic Activation: RAT, LIVER, S-9, AROCLOR 1254, Method: PREINCUBATION) was “inactive; negative”. For the same compound, the mutagenic call [6] was “inactive; negative” and the mutagenic call (Test System: CHINESE HAMSTER V-79, Strain/Indicator: V-79/8-AZAGUANINE, Metabolic Activation: NONE) was “active; positive”.

In the case of `Nc1cccc2nc3cccc(N)c3nc12`, the mutagenic call [1] is reported as “inactive; negative” and the mutagenic call (Test System: AMES SALMONELLA TYPHIMURIUM, Strain/Indicator: TA98, Metabolic Activation: RAT, LIVER, S-9, PCB, Method: PREINCUBATION) is reported as “inactive; negative”.

`C[C@]12CC[C@H]3C(=CCc4cc(O)ccc43)[C@@H]1CCC2=O` was tested, and the mutagenic call (Test System: UDS RAT HEPATOCYTES, Strain/Indicator: THY INCORP (18-20 HR), Metabolic Activation: NONE, Method: LIQUID SCINTILLATION COUNTING) was “inactive; negative”.

For `N=c1c2ncn(C(c3ccccc3)c3ccccc3)c2ncn1O`, the mutagenic call (Test System: AMES SALMONELLA TYPHIMURIUM, Strain/Indicator: TA97, Metabolic Activation: NONE, Method: STANDARD PLATE) was “inactive; negative”, the mutagenic call (Test System: AMES SALMONELLA TYPHIMURIUM, Strain/Indicator: TA97, Metabolic Activation: RAT, LIVER, S-9, AROCLOR 1254, Method: STANDARD PLATE) was “inactive; negative” and the mutagenic call [2] was “inactive; negative”. The mutagenic call [3] was “active; positive”, the mutagenic call [4] was “inactive; negative” and the mutagenic call [5] was “inactive; negative”.

For `c1ccc2c(c1)CC[C@@H]1CCCC[C@@H]21`, the mutagenic call (Test System: AMES SALMONELLA TYPHIMURIUM, Strain/Indicator: TA98, Metabolic Activation: RAT, LIVER, S-9, SODIUM PHENOBARBITAL AND BETA-NAPHTHOFLAVONE, Method: STANDARD PLATE) was “inactive; negative” and the mutagenic call (Test System: AMES SALMONELLA TYPHIMURIUM, Strain/Indicator: TA100, Metabolic Activation: RAT, LIVER, S-9, SODIUM PHEOBARBITAL AND BETA-NAPHTHOFLAVONE, Method: STANDARD PLATE) was “inactive; negative”.

`Cc1cc(-c2ccccc2C)ccc1N` was tested, and the mutagenic call [3] was “active; positive”, the mutagenic call [5] was “active; positive” and the mutagenic call [6] was “active; positive”. The mutagenic call (Test System: UDS RODENT HEPATOCYTES, Strain/Indicator: THY INCORP (NON-S-PHASE), Method: AUTORADIOGRAPHY) was “active; positive”.

For `CCCCOS(=O)(=O)c1ccc(C)cc1`, the mutagenic call (End Point: IN VITRO MICRONUCLEUS, Test System: MOUSE LYMPHOMA L5178Y CELLS, Metabolic Activation: NONE) was “active; positive”, the mutagenic call (End Point: IN VITRO MICRONUCLEUS, Test System: MOUSE LYMPHOMA L5178Y CELLS, Metabolic Activation: RAT, LIVER, S-9) was “inactive; negative” and the mutagenic call (End Point: In vitro micronucleus, Test System: Chinese Hamster Ovary (CHO-WBL) cells, Metabolic Activation: None) was “active; positive (p<0.01)”. The mutagenic call [4] was “active; positive” and the mutagenic call (Test System: AMES SALMONELLA TYPHIMURIUM, Strain/Indicator: TA100, Metabolic Activation: RAT, LIVER, S-9, Method: STANDARD PLATE) was “active; positive”.

`CCc1ccc(/C=C/c2ccc([N+](=O)[O-])cc2)cc1` was tested, and the mutagenic call [2] was “active; positive”, the mutagenic call (Test System: AMES SALMONELLA TYPHIMURIUM, Strain/Indicator: TA98, Metabolic Activation: RAT, LIVER, S-9, AROCLOR, Method: STANDARD PLATE) was “active; positive” and the mutagenic call [4] was “active; positive”. For the same compound, the mutagenic call (Test System: AMES SALMONELLA TYPHIMURIUM, Strain/Indicator: TA100, Metabolic Activation: RAT, LIVER, S-9, AROCLOR, Method: STANDARD PLATE) was “active; positive”.
